This is an account of results in patent US10414811B2, “Protease-resistant lipidated GLP-1 analogs” (MEDIMMUNE LIMITED, priority 2015, dated 2019).

Read-outs that look alike come from different tables or passages of the source. Numbered stars: 1 amine (or outer) side, 2 acyl side, 3 side chain; on linkers, the order of the positions; unused ones are H or OH. Square brackets hold non-standard residues; d marks the D form. Side chains are listed from the residue outwards. Peptide text beside a SMILES is read from it. * marks the point of attachment. C18 diacid = O=C(O)CCCCCCCCCCCCCCCCC(=O)*; γGlu = O=C(O)[C@H](CCC(=O)[*:2])N[*:1]; Palmitoyl = CCCCCCCCCCCCCCCC(=O)*; αMeF = C[C@](N)(Cc1ccccc1)C(=O)O; αMeK = C[C@](N)(CCCCN)C(=O)O; Lauroyl = CCCCCCCCCCCC(=O)*; αMeS = C[C@](N)(CO)C(=O)O; AEEA = NCCOCCOCC(=O)O; Aib = CC(C)(N)C(=O)O

Type in all cases: cell-based
For test [1], the target named is T1, human GLP-1 receptor (GLP-1R) (Homo sapiens, UniProt P43220).
T1 construct: expressed in transfected cells
T1 sequence (P43220 24-463): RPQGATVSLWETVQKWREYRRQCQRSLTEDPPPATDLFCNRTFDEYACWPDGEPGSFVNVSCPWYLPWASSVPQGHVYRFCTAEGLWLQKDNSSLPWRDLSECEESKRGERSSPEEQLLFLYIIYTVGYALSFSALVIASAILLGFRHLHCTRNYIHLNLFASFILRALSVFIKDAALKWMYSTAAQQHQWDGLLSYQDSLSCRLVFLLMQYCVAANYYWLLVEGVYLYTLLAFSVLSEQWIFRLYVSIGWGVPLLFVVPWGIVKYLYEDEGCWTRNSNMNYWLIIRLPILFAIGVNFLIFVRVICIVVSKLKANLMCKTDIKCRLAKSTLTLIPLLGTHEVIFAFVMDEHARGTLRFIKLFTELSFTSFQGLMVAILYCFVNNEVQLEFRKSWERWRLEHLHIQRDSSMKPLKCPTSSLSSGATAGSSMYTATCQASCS
In words: cAMP assay, human GLP-1R cells. In short, it runs like this:
(§1)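 Peptide-stimulated cAMP measured by two-step HTRF after a 30 min room-temperature incubation with receptor-expressing cells (hGLP-1R, hGIPR at 1×10^5 cells/ml; hGCGR at 2×10^5 cells/ml). Duplicate dilutions; EC50 from 4-parameter logistic fit of % Delta F.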
In general terms: Changes in cAMP serve as a functional read-out for many G protein-coupled receptors.

The target in another test is T2, GLP-1R (INS1e assay) (Rattus norvegicus, UniProt P32301).
T2 construct: endogenous in cells; host or cells: INS-1E cells
T2 sequence (P32301 22-463): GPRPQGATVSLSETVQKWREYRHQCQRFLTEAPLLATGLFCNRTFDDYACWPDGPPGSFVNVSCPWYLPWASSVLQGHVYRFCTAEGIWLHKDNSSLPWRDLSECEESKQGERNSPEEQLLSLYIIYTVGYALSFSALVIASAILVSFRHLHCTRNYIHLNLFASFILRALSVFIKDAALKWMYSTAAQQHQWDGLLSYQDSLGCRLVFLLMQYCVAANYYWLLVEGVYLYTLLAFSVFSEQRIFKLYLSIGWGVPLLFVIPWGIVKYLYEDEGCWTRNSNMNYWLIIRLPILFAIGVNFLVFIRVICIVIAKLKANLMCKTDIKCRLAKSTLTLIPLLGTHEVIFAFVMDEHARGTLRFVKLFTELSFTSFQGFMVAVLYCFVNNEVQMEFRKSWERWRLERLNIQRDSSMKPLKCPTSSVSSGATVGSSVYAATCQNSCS
The test can be described thus: INS1e assay, cAMP activity at GLP-1R. In outline: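 cAMP was quantified by two-step HTRF, using anti-cAMP cryptate donor and cAMP-d2 acceptor, each diluted 1/20 in conjugate and lysis buffer. EC50 values of the synthetic peptides were derived from the cAMP readout.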

The target in test [2] is T3, human glucose-dependent insulinotropic peptide receptor (GIPR) (Homo sapiens, UniProt P48546).
T3 construct: expressed in transfected cells
T3 sequence (P48546 22-466): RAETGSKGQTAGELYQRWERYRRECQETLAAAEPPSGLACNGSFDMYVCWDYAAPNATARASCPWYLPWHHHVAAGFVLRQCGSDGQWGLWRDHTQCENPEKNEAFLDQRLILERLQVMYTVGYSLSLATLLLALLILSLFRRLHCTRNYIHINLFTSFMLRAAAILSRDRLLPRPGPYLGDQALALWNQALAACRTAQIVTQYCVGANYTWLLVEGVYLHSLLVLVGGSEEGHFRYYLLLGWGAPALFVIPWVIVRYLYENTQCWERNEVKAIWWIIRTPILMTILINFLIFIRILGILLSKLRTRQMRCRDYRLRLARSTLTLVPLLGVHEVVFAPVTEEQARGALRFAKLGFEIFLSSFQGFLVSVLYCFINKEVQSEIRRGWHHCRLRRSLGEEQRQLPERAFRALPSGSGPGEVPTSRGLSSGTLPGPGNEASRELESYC
The test can be described thus: cAMP assay, human GIPR cells. In short, it runs like this:
as §1

The target of test [3] is T4, human glucagon receptor (GCGR) (Homo sapiens, UniProt P47871).
T4 construct: expressed in transfected cells
T4 sequence (P47871 26-477): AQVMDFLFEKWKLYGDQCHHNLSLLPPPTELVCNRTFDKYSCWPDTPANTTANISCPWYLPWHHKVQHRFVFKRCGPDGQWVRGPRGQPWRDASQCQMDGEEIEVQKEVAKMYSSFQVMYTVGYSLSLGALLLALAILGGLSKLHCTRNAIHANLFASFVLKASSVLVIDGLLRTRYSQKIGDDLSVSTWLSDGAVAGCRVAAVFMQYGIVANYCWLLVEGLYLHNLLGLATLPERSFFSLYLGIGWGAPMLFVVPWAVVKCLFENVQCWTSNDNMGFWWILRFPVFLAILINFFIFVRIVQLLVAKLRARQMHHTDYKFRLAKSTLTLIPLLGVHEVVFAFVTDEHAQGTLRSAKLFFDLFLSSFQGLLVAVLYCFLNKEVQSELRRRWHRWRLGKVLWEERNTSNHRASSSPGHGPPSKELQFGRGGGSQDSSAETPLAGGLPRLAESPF
In words: cAMP assay, human GCGR cells. In short, it runs like this:
as §1

Where [4] appears, read: cAMP assay, first determination (n1), read-out: Primary assay EC50 GLP-1R n1.
[5] abbreviates: cAMP assay, second determination (n2), read-out: Primary assay EC50 GLP-1R n2.
Setting [6] is: mean of n1 and n2, read-out: Mean pM GLP-1R.
Where [7] appears, read: mono-lipidated peptides, mean of n1 and n2, read-out: INS1e assay EC50 Mean pM GLP-1R.
Where [8] appears, read: mono-lipidated peptides, replicate n1, read-out: INS1e assay EC50 GLP-1R n1.
The mark [9] stands for this setting: mono-lipidated peptides, replicate n2, read-out: INS1e assay EC50 GLP-1R n2.
The mark [10] stands for this setting: cAMP assay, first determination (n1), read-out: Primary assay EC50 GIP-R (n1).
Setting [11] is: cAMP assay, second determination (n2), read-out: Primary assay EC50 GIP-R (n2).
Where [12] appears, read: cAMP assay, first determination (n1), read-out: Primary assay EC50 Gluc-R (n1).
The mark [13] stands for this setting: cAMP assay, second determination (n2), read-out: Primary assay EC50 Gluc-R (n2).

For `CCCCCCCCCCCC(=O)N[C@@H](CCC(=O)NCCOCCOCC(=O)NCCOCCOCC(=O)NCCCC[C@H](NC(=O)[C@H](CO)NC(=O)[C@](C)(CO)NC(=O)[C@@H](NC(=O)[C@H](CC(=O)O)NC(=O)[C@H](CO)NC(=O)[C@@H](NC(=O)[C@](C)(Cc1ccccc1)NC(=O)[C@H](CO)NC(=O)CNC(=O)[C@H](CCC(=O)O)NC(=O)C(C)(C)NC(=O)[C@@H](N)Cc1c[nH]cn1)[C@@H](C)O)C(C)C)C(=O)N[C@@H](CC(C)C)C(=O)N[C@@H](CCC(=O)O)C(=O)NCC(=O)N[C@@H](CCC(=O)O)C(=O)N[C@@H](C)C(=O)N[C@@H](C)C(=O)N[C@@](C)(CCCCN)C(=O)N[C@@H](CCCCNC(=O)COCCOCCNC(=O)COCCOCCNC(=O)CC[C@H](NC(=O)CCCCCCCCCCC)C(=O)O)C(=O)N[C@@H](Cc1ccccc1)C(=O)N[C@H](C(=O)N[C@@H](CCCCNC(=O)COCCOCCNC(=O)COCCOCCNC(=O)CC[C@H](NC(=O)CCCCCCCCCCC)C(=O)O)C(=O)N[C@@H](Cc1ccccc1)C(=O)N[C@H](C(=O)N[C@H](C(=O)N[C@@H](CCC(=O)O)C(=O)NCC(=O)NCC(N)=O)C(C)C)C(C)C)[C@@H](C)CC)C(=O)O` [compound 450] (H-H[Aib]EGS[αMeF]TSDV[αMeS]SK([AEEA-AEEA-γGlu-Lauroyl])LEGEAA[αMeK]K([AEEA-AEEA-γGlu-Lauroyl])FIK([AEEA-AEEA-γGlu-Lauroyl])FVVEGG-NH2; N-terminus assumed), the EC50 was 49 pM in test [1] (tris-lipidated peptides, mean of n1 and n2, read-out: Primary assay EC50 Mean pM GLP-1R); 28 pM in test [1] (tris-lipidated peptides, replicate n1, read-out: Primary assay EC50 GLP-1R n1); 70 pM in test [1] (tris-lipidated peptides, replicate n2, read-out: Primary assay EC50 GLP-1R n2); 6810 pM at GLP-1R (INS1e assay) (tris-lipidated peptides, mean of n1 and n2, read-out: INS1e assay EC50 Mean pM GLP-1R); 6380 pM on GLP-1R (INS1e assay) (tris-lipidated peptides, replicate n1, read-out: INS1e assay EC50 GLP-1R n1); 7240 pM on GLP-1R (INS1e assay) (tris-lipidated peptides, replicate n2, read-out: INS1e assay EC50 GLP-1R n2). The EC50 in test [2] (tris-lipidated peptides, second replicate, read-out: Primary assay EC50 GIP-R (n2)) is 19.9 nM; in test [3] (tris-lipidated peptides, second replicate, read-out: Primary assay EC50 Gluc-R (n2)) it was 19.9 nM.

In the case of `CCCCCCCCCCCCCCCC(=O)N[C@@H](CCC(=O)NCCCC[C@H](NC(=O)CNC(=O)[C@H](CCC(=O)O)NC(=O)[C@H](CC(C)C)NC(=O)[C@](C)(Cc1ccccc1)NC(=O)[C@H](CO)NC(=O)[C@](C)(CO)NC(=O)[C@@H](NC(=O)[C@H](CC(=O)O)NC(=O)[C@H](CO)NC(=O)[C@@H](NC(=O)[C@](C)(Cc1ccccc1)NC(=O)[C@H](CO)NC(=O)CNC(=O)[C@H](CCC(=O)O)NC(=O)C(C)(C)NC(=O)[C@@H](N)Cc1c[nH]cn1)[C@@H](C)O)C(C)C)C(=O)N[C@@H](C)C(=O)N[C@@H](C)C(=O)N[C@@](C)(CCCCN)C(=O)N[C@@H](CCC(=O)O)C(=O)N[C@@](C)(Cc1ccccc1)C(=O)N[C@H](C(=O)N[C@@H](C)C(=O)N[C@@](C)(Cc1ccccc1)C(=O)N[C@H](C(=O)N[C@H](C(=O)N[C@@](C)(CCCCN)C(=O)NCC(=O)NCC(N)=O)C(C)C)C(C)C)[C@@H](C)CC)C(=O)O` [compound 83] (H-H[Aib]EGS[αMeF]TSDV[αMeS]S[αMeF]LEGK([γGlu-Palmitoyl])AA[αMeK]E[αMeF]IA[αMeF]VV[αMeK]GG-NH2), the EC50 in test [1] (setting [4]) was found to be 3.2 pM; in test [1] (setting [5]), 4 pM; in test [1] (setting [6]) it was 3.6 pM; on GLP-1R (INS1e assay) (setting [7]), 194 pM; at GLP-1R (INS1e assay) (setting [8]) it was 137 pM; at GLP-1R (INS1e assay) (setting [9]), 250 pM. Besides, the EC50 in test [2] (setting [10]), in test [2] (setting [11]), in test [3] (setting [12]) and in test [3] (setting [13]) was at least 28 nM in each case.

Regarding `CC[C@H](C)[C@H](NC(=O)[C@](C)(Cc1ccccc1)NC(=O)[C@H](CCC(=O)O)NC(=O)[C@](C)(CCCCN)NC(=O)[C@H](C)NC(=O)[C@H](CCCCNC(=O)COCCOCCNC(=O)COCCOCCNC(=O)CC[C@H](NC(=O)CCCCCCCCCCCCCCCCC(=O)O)C(=O)O)NC(=O)[C@H](CCC(=O)O)NC(=O)CNC(=O)[C@H](CCC(=O)O)NC(=O)[C@H](CC(C)C)NC(=O)[C@](C)(Cc1ccccc1)NC(=O)[C@H](CO)NC(=O)[C@](C)(CO)NC(=O)[C@@H](NC(=O)[C@H](CC(=O)O)NC(=O)[C@H](CO)NC(=O)[C@@H](NC(=O)[C@](C)(Cc1ccccc1)NC(=O)[C@H](CO)NC(=O)CNC(=O)[C@H](CCC(=O)O)NC(=O)C(C)(C)NC(=O)[C@@H](N)Cc1c[nH]cn1)[C@@H](C)O)C(C)C)C(=O)N[C@@H](C)C(=O)N[C@@](C)(Cc1ccccc1)C(=O)N[C@H](C(=O)N[C@H](C(=O)N[C@@](C)(CCCCN)C(=O)NCC(=O)NCC(N)=O)C(C)C)C(C)C` [compound 111] (H-H[Aib]EGS[αMeF]TSDV[αMeS]S[αMeF]LEGEK([AEEA-AEEA-γGlu-C18 diacid])A[αMeK]E[αMeF]IA[αMeF]VV[αMeK]GG-NH2), the EC50 in test [1] (setting [4]) is 18 pM; on GLP-1R (INS1e assay) (setting [7]), 806 pM; at GLP-1R (INS1e assay) (setting [8]) it was 501 pM; on GLP-1R (INS1e assay) (setting [9]), 1110 pM; in test [2] (setting [10]), at least 25 nM; in test [2] (setting [11]), at least 25 nM. For the same compound, the EC50 in test [3] (setting [12]) and in test [3] (setting [13]) was at least 25 nM throughout.

In the case of `CC[C@H](C)[C@H](NC(=O)[C@H](Cc1ccccc1)NC(=O)[C@H](CCC(=O)O)NC(=O)C(C)(C)NC(=O)[C@H](C)NC(=O)[C@H](C)NC(=O)[C@H](CCC(=O)O)NC(=O)CNC(=O)[C@H](CCC(=O)O)NC(=O)[C@H](CC(C)C)NC(=O)[C@](C)(Cc1ccccc1)NC(=O)[C@H](CO)NC(=O)[C@](C)(CO)NC(=O)[C@@H](NC(=O)[C@H](CC(=O)O)NC(=O)[C@H](CO)NC(=O)[C@@H](NC(=O)[C@](C)(Cc1ccccc1)NC(=O)[C@H](CO)NC(=O)CNC(=O)[C@H](CCC(=O)O)NC(=O)C(C)(C)NC(=O)[C@@H](N)Cc1c[nH]cn1)[C@@H](C)O)C(C)C)C(=O)N[C@@H](CCCCNC(=O)COCCOCCNC(=O)COCCOCCNC(=O)CC[C@H](NC(=O)CCCCCCCCCCCCCCCCC(=O)O)C(=O)O)C(=O)N[C@@H](Cc1c[nH]c2ccccc12)C(=O)N[C@H](C(=O)N[C@H](C(=O)N[C@@H](CCC(=O)O)C(=O)NCC(=O)NCC(N)=O)C(C)C)C(C)C` [compound 67] (H-H[Aib]EGS[αMeF]TSDV[αMeS]S[αMeF]LEGEAA[Aib]EFIK([AEEA-AEEA-γGlu-C18 diacid])WVVEGG-NH2; N-terminus assumed), the EC50 in test [1] (setting [4]) worked out at 72.1 pM; in test [1] (setting [5]), 48 pM; in test [1] (setting [6]) it was 60.1 pM; on GLP-1R (INS1e assay) (setting [7]) it was 12100 pM; at GLP-1R (INS1e assay) (setting [8]), 6150 pM; at GLP-1R (INS1e assay) (setting [9]) it was 18100 pM. Besides, the EC50 in test [2] (setting [10]), in test [2] (setting [11]), in test [3] (setting [12]) and in test [3] (setting [13]) was at least 25.4 nM in each case.
